This is an account of results in ChEMBL document CHEMBL1147581, “Development of novel lipid-peptide hybrid compounds with antibacterial activity from natural cationic antibacterial peptides” (Bioorg Med Chem Lett, 2004).

Holding throughout (assay type): functional
For one experiment, the system named is Escherichia coli. In words: Minimum inhibitory concentration against Escherichia coli ATCC 25922.
Another experiment deals with Candida albicans. The experiment in a line: Minimum inhibitory concentration against Candida albicans ATCC 36232.
A further experiment concerns Staphylococcus aureus. In words: Minimum inhibitory concentration against Staphylococcus aureus ATCC 6538.
Experiment [1] can be described thus: Minimum inhibitory concentration against Micrococcus luteus ATCC 9341.
The species entered for the next experiment is Mus musculus. The experiment in a line: Concentration required for half-maximal lysis of mouse erythrocytes.
The next experiment relates to Pseudomonas aeruginosa. The experiment in a line: Minimum inhibitory concentration against Pseudomonas aeruginosa ATCC 9027.

Values after ≈ are worked out from the molar mass of the structure shown. Residues, ends and D or L forms follow the SMILES beside them. *: point of attachment. Bz = O=C(c1ccccc1)*

The MIC is the lowest concentration that inhibits growth of the organism. Consider `CC(C)[C@H](NC(=O)[C@H](CS)NC(=O)[C@@H](NC(=O)[C@H](CCCN=C(N)N)NC(=O)[C@H](CCCCN)NC(=O)CNC(=O)[C@H](CC(N)=O)NC(=O)[C@H](CS)NC(=O)[C@H](Cc1ccc(O)cc1)NC(=O)[C@@H](N)Cc1ccccc1)C(C)C)C(=O)N[C@@H](CS)C(=O)N[C@@H](CCCN=C(N)N)C(N)=O` (H-FYCNGKRVCVCR-NH2), for which the MIC against Escherichia coli was found to be 25 µg/mL (≈ 17.3 µM); against Candida albicans, 25 µg/mL (≈ 17.3 µM); against Staphylococcus aureus, 25 µg/mL (≈ 17.3 µM); in experiment [1] it was 12.5 µg/mL (≈ 8.64 µM); in the experiment on Pseudomonas aeruginosa, 25 µg/mL (≈ 17.3 µM). This molecule also came in with an HD50 in the experiment filed under Mus musculus of more than 100 µg/mL.
As for `CC(C)[C@H](NC(=O)[C@H](CS)NC(=O)[C@@H](NC(=O)[C@H](CCCN=C(N)N)NC(=O)[C@H](CCCCN)NC(=O)CNC(=O)[C@H](CC(N)=O)NC(=O)[C@H](CS)NC(=O)[C@H](Cc1ccc(O)cc1)NC(=O)[C@H](CCCCN)NC(=O)[C@@H](N)CCCCN)C(C)C)C(=O)N[C@@H](CS)C(=O)N[C@@H](CCCN=C(N)N)C(N)=O` (H-KKYCNGKRVCVCR-NH2), the MIC with Escherichia coli is 25 µg/mL (≈ 16.1 µM); against Candida albicans, 12.5 µg/mL (≈ 8.03 µM); against Staphylococcus aureus it was 6.3 µg/mL (≈ 4.05 µM); in experiment [1] it was 6.3 µg/mL (≈ 4.05 µM); against Pseudomonas aeruginosa it was 25 µg/mL (≈ 16.1 µM). This molecule registered an HD50 in the experiment filed under Mus musculus of more than 100 µg/mL.
For `CC[C@H](C)[C@H](NC(=O)[C@H](Cc1ccc(O)cc1)NC(=O)[C@H](CCCCN)NC(=O)[C@H](CCCCN)NC(=O)c1ccccc1)C(=O)N[C@@H](CCCCN)C(=O)N[C@H](C(=O)N[C@@H](Cc1ccccc1)C(=O)N[C@H](C(=O)N[C@@H](Cc1ccccc1)C(=O)N[C@@H](CCCCN)C(N)=O)C(C)C)C(C)C` (Bz-KKYIKVFVFK-NH2), inhibition of growth with Staphylococcus aureus (MIC) required 50 µg/mL (≈ 35.6 µM).
Regarding `CC(C)[C@H](NC(=O)[C@H](CS)NC(=O)[C@@H](NC(=O)[C@H](CCCN=C(N)N)NC(=O)[C@H](CCCCN)NC(=O)CNC(=O)[C@H](CC(N)=O)NC(=O)[C@H](CS)NC(=O)[C@H](Cc1ccc(O)cc1)NC(=O)[C@@H](N)CCCCN)C(C)C)C(=O)N[C@@H](CS)C(=O)N[C@@H](CCCN=C(N)N)C(N)=O` (H-KYCNGKRVCVCR-NH2), the MIC was determined as 50 µg/mL (≈ 35 µM) with Escherichia coli; 25 µg/mL (≈ 17.5 µM) against Candida albicans; 12.5 µg/mL (≈ 8.75 µM) in the experiment on Staphylococcus aureus; 6.3 µg/mL (≈ 4.41 µM) in experiment [1]; 50 µg/mL (≈ 35 µM) in the experiment with Pseudomonas aeruginosa. Further, the HD50 in the experiment listed under Mus musculus is more than 100 µg/mL.
On to `CC(C)[C@H](NC(=O)[C@H](CS)NC(=O)[C@@H](NC(=O)[C@H](CCCN=C(N)N)NC(=O)[C@H](CCCCN)NC(=O)CNC(=O)[C@H](CC(N)=O)NC(=O)[C@H](CS)NC(=O)[C@@H](N)Cc1ccc(O)cc1)C(C)C)C(=O)N[C@@H](CS)C(=O)N[C@@H](CCCN=C(N)N)C(N)=O` (H-YCNGKRVCVCR-NH2), for which the MIC against Escherichia coli came out at 12.5 µg/mL (≈ 9.62 µM); against Candida albicans, 25 µg/mL (≈ 19.2 µM); in the experiment with Staphylococcus aureus, 25 µg/mL (≈ 19.2 µM); in experiment [1], 25 µg/mL (≈ 19.2 µM); against Pseudomonas aeruginosa it was 50 µg/mL (≈ 38.5 µM). This molecule also came in with an HD50 in the experiment listed under Mus musculus of more than 100 µg/mL.
Turning to `CC(C)[C@H](NC(=O)[C@H](CS)NC(=O)[C@@H](NC(=O)[C@H](CCCN=C(N)N)NC(=O)[C@H](CCCCN)NC(=O)CNC(=O)[C@H](CC(N)=O)NC(=O)[C@H](CS)NC(=O)[C@H](Cc1ccc(O)cc1)NC(=O)[C@H](Cc1ccccc1)NC(=O)[C@@H](N)CCCCN)C(C)C)C(=O)N[C@@H](CS)C(=O)N[C@@H](CCCN=C(N)N)C(N)=O` (H-KFYCNGKRVCVCR-NH2), the MIC against Escherichia coli turned out to be 25 µg/mL (≈ 15.9 µM); in the experiment with Candida albicans, 12.5 µg/mL (≈ 7.94 µM); in the experiment on Staphylococcus aureus, 6.3 µg/mL (≈ 4 µM); in experiment [1], 6.3 µg/mL (≈ 4 µM); in the experiment with Pseudomonas aeruginosa, 50 µg/mL (≈ 31.7 µM). In the experiment filed under Mus musculus, this molecule gave an HD50 of more than 100 µg/mL.
